The experiment addresses PD-L1 His protein / PD-1 Fc protein (Homo sapiens, UniProt Q9NZQ7). Put plainly: HTRF Assay (PD-1/PD-L1 interaction). In kind it is binding. Conditions: PD-L1 His 6 nM, PD-1 Fc 6 nM. In outline:
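Compounds tested from 20 μM down to 0.001 μM (3-fold) against 6 nM PD-L1 His and 6 nM PD-1 Fc, 15 min room temperature incubation. Detection after 1 h at room temperature with Tb cryptate anti-6HIS and XL665 anti-human IgG reagents (mixture at 0.35 nM and 6.7 nM), HTRF signal.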
A general note: TR-FRET usually uses a lanthanide donor and a delayed reading to cut background.

PD-L1 His protein / PD-1 Fc protein, sequence (Q9NZQ7 19-238 limits assumed): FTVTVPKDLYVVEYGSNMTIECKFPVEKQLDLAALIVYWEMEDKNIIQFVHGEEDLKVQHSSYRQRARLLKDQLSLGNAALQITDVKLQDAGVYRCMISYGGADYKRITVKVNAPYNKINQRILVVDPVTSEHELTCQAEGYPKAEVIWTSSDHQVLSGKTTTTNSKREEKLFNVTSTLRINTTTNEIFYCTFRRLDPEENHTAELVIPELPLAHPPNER

With `COc1nc(-c2cccc(-c3cccc(-c4cc5c(=O)n(C)c(CNCCN6CCCC6=O)nn5c4)c3Cl)c2Cl)ccc1CNC[C@@H]1CCC(=O)N1` [Example 458, 6-[2-Chloro-3-[2-chloro-3-[6-methoxy-5-[[[(2S)-5-oxopyrrolidin-2-yl]methylamino]methyl]-2-pyridyl]phenyl]phenyl]-3-methyl-2-[[2-(2-oxopyrrolidin-1-yl)ethylamino]methyl]pyrrolo[2,1-f][1,2,4]triazin-4-one], the half-maximal inhibitory concentration (IC50) – broadly, the midpoint of a concentration-inhibition curve – is 240 nM.

For `COc1nc(-c2cccc(-c3cccc(-c4cnc5oc(CNC[C@@H]6CCC(=O)N6)cc5c4)c3Cl)c2Cl)ccc1CNC[C@@H]1CCC(=O)N1` [Example 459, (S)-5-((((6-(2,2′-Dichloro-3′-(2-(((((S)-5-oxopyrrolidin-2-yl)methyl)amino)methyl)furo[2,3-b]pyridin-5-yl)-[1,1′-biphenyl]-3-yl)-2-methoxypyridin-3-yl)methyl)amino)methyl)pyrrolidin-2-one], inhibition was half-maximal at 200 nM (IC50).

Take `COc1nc(-c2cccc(-c3cccc(-c4cc5c(=O)n(C)c(CN6CC7(C6)CN(C(C)=O)C7)nn5c4)c3Cl)c2Cl)ccc1CNC[C@@H]1CCC(=O)N1` [Example 460, 2-[(2-Acetyl-2,6-diazaspiro[3.3]heptan-6-yl)methyl]-6-[2-chloro-3-[2-chloro-3-[6-methoxy-5-[[[(2S)-5-oxopyrrolidin-2-yl]methylamino]methyl]-2-pyridyl]phenyl]phenyl]-3-methyl-pyrrolo[2,1-f][1,2,4]triazin-4-one]: it took 9.9 nM to reach half-maximal inhibition (IC50).

On to `COc1nc(-c2cccc(-c3cccc(-c4cc5c(=O)n(C)c(CN6CC(C(C)(C)O)C6)nn5c4)c3Cl)c2Cl)ccc1CNC[C@@H]1CCC(=O)N1` [Example 461, 6-[2-Chloro-3-[2-chloro-3-[6-methoxy-5-[[[(2S)-5-oxopyrrolidin-2-yl]methylamino]methyl]-2-pyridyl]phenyl]phenyl]-2-[[3-(1-hydroxy-1-methyl-ethyl)azetidin-1-yl]methyl]-3-methyl-pyrrolo[2,1-f][1,2,4]triazin-4-one], for which half-maximal inhibition (IC50) required 13 nM.

In turn, `COc1nc(-c2cccc(-c3cccc(-c4cc5c(=O)n(C)c(CNCC(C)(C)F)nn5c4)c3Cl)c2Cl)ccc1CNC[C@@H]1CCC(=O)N1` [Example 462, (S)-6-(2,2′-Dichloro-3′-(6-methoxy-5-((((5-oxopyrrolidin-2-yl)methyl)amino)methyl)pyridin-2-yl)-[1,1′-biphenyl]-3-yl)-2-(((2-fluoro-2-methylpropyl)amino)methyl)-3-methylpyrrolo[2,1-f][1,2,4]triazin-4(3H)-one] returned an IC50 of 58 nM.

`COc1nc(-c2cccc(-c3cccc(-c4cc5c(=O)n(C)c(CNCC6(F)CC6)nn5c4)c3Cl)c2Cl)ccc1CNC[C@@H]1CCC(=O)N1` [Example 463, (S)-6-(2,2′-Dichloro-3′-(6-methoxy-5-((((5-oxopyrrolidin-2-yl)methyl)amino)methyl)pyridin-2-yl)-[1,1′-biphenyl]-3-yl)-2-((((1-fluorocyclopropyl)methyl)amino)methyl)-3-methylpyrrolo[2,1-f][1,2,4]triazin-4(3H)-one] displayed an IC50 of 36 nM.

The molecule `COc1nc(-c2cccc(-c3cccc(-c4cc5c(=O)n(C)c(CN[C@H]6C[C@](C)(O)C6)nn5c4)c3Cl)c2Cl)cc(Cl)c1CNC[C@@H]1CCC(=O)N1` [Example 464, 6-(2,2′-dichloro-3′-(4-chloro-6-methoxy-5-(((((S)-5-oxopyrrolidin-2-yl)methyl)amino)methyl)pyridin-2-yl)-[1,1′-biphenyl]-3-yl)-2-((((1r,3r)-3-hydroxy-3-methylcyclobutyl)amino)methyl)-3-methylpyrrolo[2,1-f][1,2,4]triazin-4(3H)-one] returned an IC50 of 7.5 nM.

For the molecule `COc1nc(-c2cccc(-c3cccc(-c4cc5c(=O)n(C)c(CNCC(C)(C)C(F)(F)F)nn5c4)c3Cl)c2Cl)ccc1CNC[C@@H]1CCC(=O)N1` [Example 466, (S)-6-(2,2′-Dichloro-3′-(6-methoxy-5-((((5-oxopyrrolidin-2-yl)methyl)amino)methyl)pyridin-2-yl)-[1,1′-biphenyl]-3-yl)-3-methyl-2-(((3,3,3-trifluoro-2,2-dimethylpropyl)amino)methyl) pyrrolo[2,1-f][1,2,4]triazin-4(3H)-one], the IC50 amounted to 63 nM.

As for `COc1nc(-c2cccc(-c3cccc(-c4cc5c(cn4)C(=O)N(CCNC[C@@H]4CCC(=O)N4)C5)c3Cl)c2Cl)ccc1CNC[C@@H]1CCC(=O)N1` [Example 467, 6-(2,2′-Dichloro-3′-(6-methoxy-5-(((((S)-5-oxopyrrolidin-2-yl)methyl)amino)methyl)pyridin-2-yl)-[1,1′-biphenyl]-3-yl)-2-(2-((((S)-5-oxopyrrolidin-2-yl)methyl)amino)ethyl)-1H-pyrrolo[3,4-c]pyridin-3(2H)-one], 0.1 nM corresponded to half-maximal inhibition (IC50). Compared with the last molecule, the IC50 is about 630-fold lower.

`COc1nc(-c2cccc(-c3cccc(-c4cc5c(=O)n(C)c(CN6CC7(CC(O)C7)C6)nn5c4)c3Cl)c2Cl)ccc1CNC[C@@H]1CCC(=O)N1` [Example 468, 6-[2-Chloro-3-[2-chloro-3-[6-methoxy-5-[[[(2S)-5-oxopyrrolidin-2-yl]methylamino]methyl]-2-pyridyl]phenyl]phenyl]-2-[(6-hydroxy-2-azaspiro[3.3]heptan-2-yl)methyl]-3-methyl-pyrrolo[2,1-f][1,2,4]triazin-4-one] showed a concentration for half-maximal inhibition (IC50) of 7 nM.

On to `COc1nc(-c2cccc(-c3cccc(-c4cc5c(=O)n(C)c(CN6CC(C)(O)C6)nn5c4)c3Cl)c2Cl)ccc1CNC[C@@H]1CCC(=O)N1` [Example 469, 6-[2-Chloro-3-[2-chloro-3-[6-methoxy-5-[[[(2S)-5-oxopyrrolidin-2-yl]methylamino]methyl]-2-pyridyl]phenyl]phenyl]-2-[(3-hydroxy-3-methyl-azetidin-1-yl)methyl]-3-methyl-pyrrolo[2,1-f][1,2,4]triazin-4-one], for which the IC50 came out at 5.9 nM.

In turn, `COc1nc(-c2cccc(-c3cccc(-c4cc5c(=O)n(C)c(CN6CC(C)(C#N)C6)nn5c4)c3Cl)c2Cl)ccc1CNC[C@@H]1CCC(=O)N1` [Example 470, 1-[[6-[2-chloro-3-[2-chloro-3-[6-methoxy-5-[[[(2S)-5-oxopyrrolidin-2-yl]methylamino]methyl]-2-pyridyl]phenyl]phenyl]-3-methyl-4-oxo-pyrrolo[2,1-f][1,2,4]triazin-2-yl]methyl]-3-methyl-azetidine-3-carbonitrile] returned an IC50 of 37 nM.

With `COc1nc(-c2cccc(-c3cccc(-c4nc5c(c(OC)n4)CN(C[C@@H]4CCC(=O)N4)CC5)c3Cl)c2Cl)ccc1CNC[C@@H]1CCC(=O)N1` [Example 471, (S)-5-((((6-(2,2′-Dichloro-3′-(4-methoxy-6-(((S)-5-oxopyrrolidin-2-yl)methyl)-5,6,7,8-tetrahydropyrido[4,3-d]pyrimidin-2-yl)-[1,1′-biphenyl]-3-yl)-2-methoxypyridin-3-yl)methyl)amino)methyl)pyrrolidin-2-one], the IC50 is 0.1 nM. Compared with the last molecule, the IC50 is about 370-fold lower.

On to `COc1nc(-c2cccc(-c3cccc(-c4cc5c(=O)n(C)c(CNC[C@@H]6CCO6)nn5c4)c3Cl)c2Cl)ccc1CNC[C@@H]1CCC(=O)N1` [Example 472, 6-[2-Chloro-3-[2-chloro-3-[6-methoxy-5-[[[(2S)-5-oxopyrrolidin-2-yl]methylamino]methyl]-2-pyridyl]phenyl]phenyl]-3-methyl-2-[[[(2S)-oxetan-2-yl]methylamino]methyl]pyrrolo[2,1-f][1,2,4]triazin-4-one], for which half-maximal inhibition (IC50) was put at 400 nM.

In turn, `COc1nc(-c2cccc(-c3cccc(-c4cc5c(=O)n(C)c(CNC67CC(O)(C6)C7)nn5c4)c3Cl)c2Cl)ccc1CNC[C@@H]1CCC(=O)N1` [Example 473, (S)-6-(2,2′-Dichloro-3′-(6-methoxy-5-((((5-oxopyrrolidin-2-yl)methyl)amino)methyl)pyridin-2-yl)-[1,1′-biphenyl]-3-yl)-2-(((3-hydroxybicyclo[1.1.1]pentan-1-yl)amino)methyl)-3-methylpyrrolo[2,1-f][1,2,4]triazin-4(3H)-one] had an IC50 of 5.3 nM.

As for `COc1nc(-c2cccc(-c3cccc(-c4cc5c(=O)n(C)c(CNC[C@@H]6CCCO6)nn5c4)c3Cl)c2Cl)ccc1CNC[C@@H]1CCC(=O)N1` [Example 474, 6-[2-Chloro-3-[2-chloro-3-[6-methoxy-5-[[[(2S)-5-oxopyrrolidin-2-yl]methylamino]methyl]-2-pyridyl]phenyl]phenyl]-3-methyl-2-[[[(2S)-tetrahydrofuran-2-yl]methylamino]methyl]pyrrolo[2,1-f][1,2,4]triazin-4-one], the half-maximal inhibitory concentration (IC50) stood at 21 nM.

`COc1nc(-c2cccc(-c3cccc(-c4cc5c(=O)n(C)c(CNC[C@H](C)OC)nn5c4)c3Cl)c2Cl)ccc1CNC[C@@H]1CCC(=O)N1` [Example 475, 6-[2-Chloro-3-[2-chloro-3-[6-methoxy-5-[[[(2S)-5-oxopyrrolidin-2-yl]methylamino]methyl]-2-pyridyl]phenyl]phenyl]-2-[[[(2S)-2-methoxypropyl]amino]methyl]-3-methyl-pyrrolo[2,1-f][1,2,4]triazin-4-one] returned an IC50 of 530 nM.

As to `COc1nc(-c2cccc(-c3cccc(-c4cc5c(=O)n(C)c(CNC[C@H]6CNC(=O)C6)nn5c4)c3Cl)c2Cl)ccc1CNC[C@@H]1CCC(=O)N1` [Example 476, 6-[2-Chloro-3-[2-chloro-3-[6-methoxy-5-[[[(2S)-5-oxopyrrolidin-2-yl]methylamino]methyl]-2-pyridyl]phenyl]phenyl]-3-methyl-2-[[[(3S)-5-oxopyrrolidin-3-yl]methylamino]methyl]pyrrolo[2,1-f][1,2,4]triazin-4-one], half-maximal inhibition (IC50) was put at 33 nM.

In turn, `COc1nc(-c2cccc(-c3cccc(-c4cc5c(=O)n(C)c(CNC(C)C)nn5c4)c3Cl)c2Cl)ccc1CNC[C@@H]1CCC(=O)N1` [Example 477, 6-[2-Chloro-3-[2-chloro-3-[6-methoxy-5-[[[(2S)-5-oxopyrrolidin-2-yl]methylamino]methyl]-2-pyridyl]phenyl]phenyl]-2-[(isopropylamino)methyl]-3-methyl-pyrrolo[2,1-f][1,2,4]triazin-4-one] returned an IC50 of 17 nM.

The record behind these values is patent publication US20230143612A1 (Arbutus Biopharma Corporation, priority 2020, published 2023).
